Source: patent publication US7704971B2, “Uracil reductase inactivators” (SmithKlineBeecham Corporation, priority 1990, dated 2010)

Columns and labels:
uracil reductase = biological target: T1, uracil reductase (Rattus norvegicus, UniProt O89000); assay: Inactivation of uracil reductase in vivo (plasma uracil and thymine), rats
T1 construct: from tissue; host or cells: whole animal (rat), endogenous enzyme
T1 sequence (O89000 1-1025): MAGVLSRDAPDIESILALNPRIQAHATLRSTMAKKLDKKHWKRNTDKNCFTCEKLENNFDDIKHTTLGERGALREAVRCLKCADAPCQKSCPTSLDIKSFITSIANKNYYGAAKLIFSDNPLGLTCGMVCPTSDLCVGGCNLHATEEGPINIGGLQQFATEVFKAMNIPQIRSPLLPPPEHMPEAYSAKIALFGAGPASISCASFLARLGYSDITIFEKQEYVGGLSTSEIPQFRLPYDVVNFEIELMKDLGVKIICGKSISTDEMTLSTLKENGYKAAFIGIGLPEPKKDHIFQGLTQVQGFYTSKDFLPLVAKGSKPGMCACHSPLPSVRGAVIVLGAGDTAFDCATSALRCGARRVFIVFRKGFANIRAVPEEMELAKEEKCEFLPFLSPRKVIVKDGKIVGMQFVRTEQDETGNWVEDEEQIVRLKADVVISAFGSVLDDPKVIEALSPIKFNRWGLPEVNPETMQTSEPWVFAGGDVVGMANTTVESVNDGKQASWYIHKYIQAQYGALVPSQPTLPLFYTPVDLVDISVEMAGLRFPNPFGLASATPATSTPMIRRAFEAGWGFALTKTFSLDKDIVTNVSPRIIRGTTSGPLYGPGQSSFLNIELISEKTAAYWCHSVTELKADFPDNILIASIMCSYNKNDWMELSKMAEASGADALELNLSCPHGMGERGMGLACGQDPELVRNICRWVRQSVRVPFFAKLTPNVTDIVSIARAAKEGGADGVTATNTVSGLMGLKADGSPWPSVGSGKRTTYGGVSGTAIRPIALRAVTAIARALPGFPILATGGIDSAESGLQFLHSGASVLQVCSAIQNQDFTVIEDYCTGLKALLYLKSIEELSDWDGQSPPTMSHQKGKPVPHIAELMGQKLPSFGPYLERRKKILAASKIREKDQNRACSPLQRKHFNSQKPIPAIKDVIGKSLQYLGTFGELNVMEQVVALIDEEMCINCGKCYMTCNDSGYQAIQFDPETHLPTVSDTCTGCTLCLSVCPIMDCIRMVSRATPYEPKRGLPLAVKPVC
Protocol: The maximum effect occurred at about 0.1 mg/kg p.o. in rats, at 0.5 to 1 mg/kg s.c. in mice, and at approximately 1 mg/kg intravenously (i.v.) in dogs and probably represents total inactivation of uracil reductase. These doses elevated mouse, dog, and rat plasma uracil from about 3 uM to about 50-60 uM. […] The ED50 equals 0.01 mg/kg.

[1] = biological target: T2, Uracil reductase (dihydropyrimidine dehydrogenase, EC 1.3.1.2) (Bos taurus, UniProt Q28007); assay: Determination of uracil reductase inactivation; format: biochemical, bovine
T2 construct: purified from bovine liver; from tissue; host or cells: bovine liver
T2 sequence (Q28007 1-1025): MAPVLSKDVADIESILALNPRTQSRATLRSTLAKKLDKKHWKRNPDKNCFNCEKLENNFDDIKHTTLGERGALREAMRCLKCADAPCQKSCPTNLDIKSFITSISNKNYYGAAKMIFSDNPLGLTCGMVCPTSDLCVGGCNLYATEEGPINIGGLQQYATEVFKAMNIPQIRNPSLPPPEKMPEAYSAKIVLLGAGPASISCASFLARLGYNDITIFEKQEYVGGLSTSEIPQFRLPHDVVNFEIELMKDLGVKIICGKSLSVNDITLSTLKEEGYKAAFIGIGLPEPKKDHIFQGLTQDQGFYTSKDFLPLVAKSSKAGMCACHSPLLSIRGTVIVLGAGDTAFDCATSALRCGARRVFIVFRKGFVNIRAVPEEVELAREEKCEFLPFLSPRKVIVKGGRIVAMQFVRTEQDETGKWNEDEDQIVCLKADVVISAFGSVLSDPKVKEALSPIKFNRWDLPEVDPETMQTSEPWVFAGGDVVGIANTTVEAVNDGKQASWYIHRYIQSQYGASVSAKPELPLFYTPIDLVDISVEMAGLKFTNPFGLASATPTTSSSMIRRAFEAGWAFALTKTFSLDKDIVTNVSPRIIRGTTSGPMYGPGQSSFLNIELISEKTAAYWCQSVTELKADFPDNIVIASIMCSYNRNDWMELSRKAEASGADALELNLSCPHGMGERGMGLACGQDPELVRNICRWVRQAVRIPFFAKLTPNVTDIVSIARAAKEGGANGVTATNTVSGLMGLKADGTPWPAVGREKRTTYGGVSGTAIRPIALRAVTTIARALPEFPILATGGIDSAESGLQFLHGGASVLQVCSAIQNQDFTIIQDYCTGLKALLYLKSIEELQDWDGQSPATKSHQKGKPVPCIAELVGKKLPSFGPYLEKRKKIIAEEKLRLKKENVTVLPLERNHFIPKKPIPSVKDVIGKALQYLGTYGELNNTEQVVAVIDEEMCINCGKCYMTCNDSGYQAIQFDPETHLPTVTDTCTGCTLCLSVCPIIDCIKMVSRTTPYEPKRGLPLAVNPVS
Protocol: Uracil reductase (1 micromolar) (dihydropyrimidine dehydrogenase, EC 1.3.1.2) purified from bovine liver was incubated with 100 micromolar inactivator and 5 mM dithiothreitol (enzyme reductant) at 37° for 30 minutes in 0.05 M Tris-HCl at pH 8.0. The enzyme and inactivator were diluted 100-fold into the assay buffer, which contained 200 micromolar NADPH, 200 micromolar thymine and 1 mM dithiothreitol in Tris-HCl at pH 8.0. The velocity of the enzyme was determined spectrophotometrically. These velocities have been corrected for NADPH oxidase activity, which was less than […] of the rate of thymine-dependent oxidation of NADPH. The % inactivation of the enzyme was equal to 100% minus the percent of enzymatic activity remaining. Enzyme incubated without inhibitor was stable under these conditions. Parenthetical values are the relative first-order rate constants for inactivation of enzyme determined from similar experiments where the fractional activity was measured as a function of the time of incubation of 50 micromol inactivator with enzyme.

With `C#Cc1c[nH]c(=O)[nH]c1=O` [5-ethynyluracil] the plasma uracil (uracil reductase; rat, at dose of maximum effect, elevated from about 3 uM) was 50 to 60 µM, the ED50 (uracil reductase; rat, oral doses, 4 hours after dosing, read-out: ED50 (increased plasma levels of uracil and thymine)) was 0.01 mg/kg and the “dose at which the maximum effect on plasma uracil and thymine occurred” value (uracil reductase; rats, p.o.) was “about 0.1 mg/kg”. The “relative first-order rate constants for inactivation of enzyme (parenthetical values)” value ([1]; 50 micromol inactivator, fractional activity vs time of incubation) was “(100)” and the inhibition at 100 µM ([1]; 0.5 h, 100 micromolar inactivator, 1 micromolar enzyme, 5 mM dithiothreitol, 37° for 30 minutes, pH 8.0, read-out: % Inactivation) was 100%.
